Test results: article PMC5063506, “A Novel Class of Small Molecule Agonists with Preference for Human over Mouse TLR4 Activation” (PLoS ONE, 2016)

How the values were obtained:
Type in all cases: cell-based
[1] = target: T1, mouse TLR4/MD2 (Mus musculus, UniProt Q9JHF9+Q9QUK6); test: mTLR4/MD2-HEK293 transfectant SEAP (QUANTI-Blue) dose response, AUC; settings: 1 μg/ml to 4 ng/ml, 24 h, SEAP OD 650 nm vs log concentration
T1 construct: host or cells: HEK293
T1 sequence (Q9QUK6 26-835): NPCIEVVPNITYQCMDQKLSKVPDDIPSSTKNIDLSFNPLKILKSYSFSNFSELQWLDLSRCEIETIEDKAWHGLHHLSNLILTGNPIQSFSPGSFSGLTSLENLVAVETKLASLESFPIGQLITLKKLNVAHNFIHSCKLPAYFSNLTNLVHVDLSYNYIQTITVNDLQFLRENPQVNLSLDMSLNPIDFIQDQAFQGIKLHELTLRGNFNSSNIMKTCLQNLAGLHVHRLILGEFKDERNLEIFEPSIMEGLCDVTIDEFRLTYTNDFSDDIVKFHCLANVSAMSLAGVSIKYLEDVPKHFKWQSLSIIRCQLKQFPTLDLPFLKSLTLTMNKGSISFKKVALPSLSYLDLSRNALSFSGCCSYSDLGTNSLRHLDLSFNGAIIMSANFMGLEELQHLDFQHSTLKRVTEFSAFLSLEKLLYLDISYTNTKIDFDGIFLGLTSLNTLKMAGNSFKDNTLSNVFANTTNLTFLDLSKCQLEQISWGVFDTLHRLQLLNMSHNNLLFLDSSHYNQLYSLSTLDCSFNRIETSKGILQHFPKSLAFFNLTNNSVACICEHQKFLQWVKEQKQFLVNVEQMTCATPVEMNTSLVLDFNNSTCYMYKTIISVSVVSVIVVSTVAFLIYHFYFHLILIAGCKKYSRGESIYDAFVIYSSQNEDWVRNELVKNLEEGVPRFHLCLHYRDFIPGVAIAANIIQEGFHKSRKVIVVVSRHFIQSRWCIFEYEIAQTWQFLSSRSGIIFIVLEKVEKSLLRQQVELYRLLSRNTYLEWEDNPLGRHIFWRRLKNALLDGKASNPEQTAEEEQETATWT
T1 sequence (Q9JHF9 19-160): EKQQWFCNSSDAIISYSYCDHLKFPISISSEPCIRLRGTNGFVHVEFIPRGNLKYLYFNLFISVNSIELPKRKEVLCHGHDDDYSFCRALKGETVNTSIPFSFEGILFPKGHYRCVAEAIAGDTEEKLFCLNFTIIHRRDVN
Procedure: (§1) Cells were seeded in tissue culture treated clear flat bottom polystyrene 96 well plates (Costar, 3598) at 1e4 cells/well. Concentration-response curves were generated by addition of test compounds and incubation for 20 h at 37°C in an atmosphere of 5% CO2. LPS (E. coli 0111:B4, Ultra-pure, Invivogen) or PHAD (Avanti Polar Lipids) was used as a positive control. The SEAP released was quantified using p nitrophenyl phosphate as a substrate, and the absorbance at 405 nm was measured at 30 second intervals over several minutes using a microplate reader. Some data are recorded as the pEC50, the negative log of the EC50 value. Other data generated from these reporter cell lines were converted to AUC (area under the curve) values by interpolation of fitted cubic spline curve between OD value and log concentration levels. The calculation is performed using MESS package in statistical software R (www.r-project.org/).
(§2) Fig 4 Ugi compounds preferentially activate TLR4-HEK transfectants expressing human MD2. A-B) HEK293 cells transfected with human TLR4/MD2 or mouse TLR4/MD2 (InVivogen) were stimulated with TLR4 agonists including MPL, PHAD, and Ugi compounds at 1 μg/ml to 4 ng/ml and with LPS at 25 ng/ml to 64 pg/ml for 24 h. SNs were analyzed for SEAP content by the QUANTI-Blue assay (InVivogen) and analysis at 650 nm by spectrophotometer. AUC (area under the curve) values were calculated as in Methods. No AUC value was calculated for LPS since it was utilized with a different dose range. C) HEK transfectants with cis- or trans-species expression of TLR4, MD2, and CD14 were stimulated with Ugi compounds in a dose response range of 9 μM to 1 nM or with LPS (boxes) at 75 ng/ml to 5 pg/ml for 48 h. Data was obtained as Vmax calculated over the initial linear portion of the kinetic absorbance measurements. The AUC (area under the curve) value for the dose response curve of Vmax vs log10 (molar units) was calculated for each compound using Trapezoidal rule. TEXT PRINTED IN THE PICTURE: (A) MPL: hTLR4-HEK AUC: 0.55 | (A) AZ617: hTLR4-HEK AUC: 5.90 | (A) AZ618: hTLR4-HEK AUC: 6.56 | (A) AZ839: hTLR4-HEK AUC: 6.00 | (A) AZ161: hTLR4-HEK AUC: 5.54 | (A) AZ902: hTLR4-HEK AUC: 7.04 | (A) GLA: hTLR4-HEK AUC: 3.75 | (B) MPL: mTLR4-HEK AUC: 13.27 | (B) AZ617: mTLR4-HEK AUC: 0.89 | (B) AZ618: mTLR4-HEK AUC: 1.03 | (B) AZ839: mTLR4-HEK AUC: 0.93 | (B) AZ161: mTLR4-HEK AUC: 0.99 | (B) AZ902: mTLR4-HEK AUC: 1.55 | (B) GLA: mTLR4-HEK AUC: 14.24

[2] = target: T2, human TLR4/MD2 (Homo sapiens, UniProt O00206+Q9Y6Y9); test: hTLR4/MD2-HEK293 transfectant SEAP (QUANTI-Blue) dose response, AUC; settings: 1 μg/ml to 4 ng/ml, 24 h, SEAP OD 650 nm vs log concentration
T2 construct: host or cells: HEK293
Procedure: as §1, §2

[3] = target: T3, human TLR4 (Homo sapiens, UniProt O00206+Q9Y6Y9); test: Human TLR4 NFκB SEAP reporter gene assay in hTLR4-transfected HEK293 cells; settings: NFκB SEAP reporter, hTLR4-transfected HEK293 cells, 20 h; read-out: Human TLR4 pEC50 (converted)
T3 construct: expressed in transfected cells; host or cells: HEK293 with stably integrated pNiFty2-SEAP reporter
Procedure: as §1, with “HEK293 cells stably transfected with pNiFty2-SEAP reporter plasmid were transiently transfected with either human or mouse TLR4 (pUNO expression vector), in combination with either human or mouse CD14/MD2 (pDUO expression vector). Transient transfectants were seeded in Dulbecco’s Modified Eagle Medium, FCS 10% (v/v), 2 mM l glutamine and non-essential amino acids. Cells” for “Cells”

T2 sequence (O00206 24-839): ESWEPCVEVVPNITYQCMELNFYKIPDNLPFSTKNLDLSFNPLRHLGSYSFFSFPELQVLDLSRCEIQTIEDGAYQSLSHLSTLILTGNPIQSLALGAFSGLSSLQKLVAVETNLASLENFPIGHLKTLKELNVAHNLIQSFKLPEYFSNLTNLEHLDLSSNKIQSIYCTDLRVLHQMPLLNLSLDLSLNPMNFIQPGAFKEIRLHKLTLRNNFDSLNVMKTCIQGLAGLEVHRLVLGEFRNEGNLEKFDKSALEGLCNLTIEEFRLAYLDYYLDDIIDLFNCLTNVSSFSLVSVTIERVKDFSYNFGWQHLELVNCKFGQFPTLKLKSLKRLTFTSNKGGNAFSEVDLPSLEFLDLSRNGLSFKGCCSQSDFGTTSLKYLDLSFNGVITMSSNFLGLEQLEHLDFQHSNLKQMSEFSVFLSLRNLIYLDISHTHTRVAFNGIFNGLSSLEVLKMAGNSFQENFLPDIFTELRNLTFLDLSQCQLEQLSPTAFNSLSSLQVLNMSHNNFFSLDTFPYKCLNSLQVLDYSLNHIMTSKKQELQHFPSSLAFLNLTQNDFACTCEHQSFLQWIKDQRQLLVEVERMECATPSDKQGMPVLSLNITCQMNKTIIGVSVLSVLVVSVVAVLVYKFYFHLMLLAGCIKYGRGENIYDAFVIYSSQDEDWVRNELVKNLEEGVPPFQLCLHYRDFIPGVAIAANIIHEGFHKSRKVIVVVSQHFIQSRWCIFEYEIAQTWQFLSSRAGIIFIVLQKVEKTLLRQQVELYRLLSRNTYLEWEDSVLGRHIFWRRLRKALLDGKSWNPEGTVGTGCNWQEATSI
T2 sequence (Q9Y6Y9 19-160): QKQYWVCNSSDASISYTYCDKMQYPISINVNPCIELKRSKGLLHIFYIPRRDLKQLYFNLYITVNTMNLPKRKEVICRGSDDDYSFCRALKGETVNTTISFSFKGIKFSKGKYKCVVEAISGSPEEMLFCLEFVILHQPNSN
T3 sequence (O00206 24-839): as the sequence (O00206 24-839) above
T3 sequence (Q9Y6Y9 19-160): as the sequence (Q9Y6Y9 19-160) above

| SMILES | mTLR4-HEK AUC [1] | hTLR4-HEK AUC [2] | EC50 [3] [nM] |
| --- | --- | --- | --- |
| CC(C)(C)c1ccc(N(C(=O)c2cc(-c3ccccc3)n(-c3ccccc3)n2)C(C(=O)NC2CCCC2)c2ccc(CC(=O)O)cc2)cc1 (stereo not drawn) [AZ902] | 1.55 | 7.04 | 6.31 |
| O=C(O)Cc1ccc(C(C(=O)NC2CCCC2)N(C(=O)c2cc(-c3ccccc3)n(-c3ccccc3)n2)c2ccc3c(c2)CCC3)cc1 (stereo not drawn) [AZ617] | 0.89 | 5.90 | 5.01 |
| Cc1cc(C)cc(N(C(=O)c2cc(-c3ccccc3)n(-c3ccccc3)n2)C(C(=O)NC2CCCC2)c2ccc(CC(=O)O)cc2)c1 (stereo not drawn) [AZ618, 2-(4-(2-(cyclopentylamino)-1-(N-(3,5-dimethylphenyl)-1,5-diphenyl-1H-pyrazole-3-carboxamido)-2-oxoethyl)phenyl)acetic acid] | 1.03 | 6.56 | 20 |
| Cc1ccc(N(C(=O)c2cc(-c3ccccc3)n(-c3ccccc3)n2)C(C(=O)NC2CCCC2)c2ccc(CC(=O)O)cc2)cc1Cl (stereo not drawn) [AZ161] | 0.99 | 5.54 | 20 |
